The source of these data is paper PMC6982354, “Promising New Inhibitors of Tyrosyl-DNA Phosphodiesterase I (Tdp 1) Combining 4-Arylcoumarin and Monoterpenoid Moieties as Components of Complex Antitumor Therapy” (International Journal of Molecular Sciences, 2019).

The target of data set [1] is T1, human Tdp1 (residues 149-608) (Homo sapiens, UniProt Q9NUW8).
T1 construct: human Tdp1 (residues 149-608); made in house; host or cells: Escherichia coli BL21 (DE3)
Briefly: Intrinsic tryptophan fluorescence quenching binding assay. The following applies: Tdp1 10 µM, 20 mM Tris, 250 mM NaCl, pH 8; triplicate; read-out: dissociation constant (KD). An excerpt: Derivatives of nopol were the most complex compounds to synthesize and purify. Therefore, they were excluded from further consideration. Since we previously obtained contradictory results in in vivo experiments with the myrtenol derivative 2 (unpublished data), in this work, we decided to focus on geraniol derivatives for the in vivo studies. […] In addition to the activity assay that we reported above, we wanted to confirm the interactions between compound 3ba and Tdp1 before progressing to in vivo studies. Using an intrinsic tryptophan fluorescence quenching assay that we previously applied to study the binding interactions of Tdp1 and its inhibitors, we evaluated the binding of compound 3ba to recombinant Tdp1. Clear quenching of the Tdp1 intrinsic fluorescence was observed upon the addition of 3ba (Supplementary Figure S1). […]
Binding Assay. […] Intrinsic protein fluorescence was measured using PerkinElmer EnSpire Multimode Reader. […] The excitation wavelength was 280 nm and the intrinsic fluorescence was measured at 350 nm. […] Dissociation constants (KD) were calculated using the following formula, that takes nonspecific binding into account. […]
In this formula, I indicates changes in fluorescence intensity from the titration, Imax indicates the maximum fluorescence intensity change, [Lᴛ] is the titration ligand concentration, and Ns is the non-specific term. […]

Data set [2] has as its system Lewis carcinoma. Briefly: Lifespan of mice with ascites variant of Lewis carcinoma. It is filed as in vivo. The following applies: for increase in lifespan: tpc + 3ba 120 mg/kg. As for the experimental part: We then examined the effect of 3ba in combination with tpc on the lifespan of mice. C57BL/6 mice were intraperitoneally inoculated with the ascites variant of Lewis carcinoma. Group 1: control without treatment; group 2: tpc 0.5 mg/kg intraperitoneally; group 3: tpc and 3ba intraperitoneally 120 mg/kg; and group 4: 3ba 120 mg/kg only.
(§1) Lab animals. Thre-e to four-month-old male and female C57Bl/6 mice from the breeding colony of the Institute of Cytology and Genetics, SB RAS, were used in the study. The animals were kept on sawdust in plastic cages with 5–7 mice per cage, with free access to ground food (“Laboratorkorm”, Moskow, Russia) and tap water. All experiments were performed in accordance with protocols approved by the Animal Care and Use Committee of the Institute of Cytology and Genetics. Also, all experimental procedures were performed in accordance with the Directive 2010/63/EU for animal experiments.
(§2) Tumor models. The experimental tumor used was Lewis Lung Carcinoma (LLC) and Krebs-2. The animals were treated with tpc and the Tdp1 inhibitor 3ba two days after tumor transplantation. The tumor was transplanted into the muscles of the thigh by 0.2 million cells per mouse. Tpc (Sindan Pharma SRL, Romania) was administered intraperitoneally at a single dose of 0.5 mg/kg; Tdp1 inhibitor 3ba was administrated intraperitoneally at a single dose of 20, 40, or 80 mg/kg (for Krebs-2), or 120 mg/kg (for LLC) in 15% dimethyl sulfoxide (DMSO)–10% Tween-80 suspension in water (0.2 mL of suspension per mouse) simultaneously with tpc. Control mice were injected with a DMSO-Tween-80 mixture into the stomach.
(§3) Statistical analysis. The experimenter measuring and calculating the primary animal data (tumor size, lifespan) was blinded. After unblinding, the animal data were statistically processed using oneway ANOVA. Post-hoc testing was completed using Turkey’s Honestly Significant Difference (HSD). p < 0.05 was considered to be statistically significant. The statistical package […] version 12.5 was used for analysis. All results are expressed as mean ± SEM.

Data set [3] addresses T2, Tdp1 (Homo sapiens, UniProt Q9NUW8).
T2 construct: made in house
Briefly: Real-time detection of Tdp1 activity (FAM/BHQ1 oligonucleotide biosensor). It is filed as biochemical. The note with it: Tdp1 inhibition, 6-point concentration response curve. Here is the method: A previously designed, real-time, hexadecameric oligonucleotide biosensor with 5(6)-carboxyfluorescein (FAM) at the 5′ end and fluorophore quencher BHQ1 (Black Hole Quencher-1) at the 3′-end was used to determine the inhibitory properties of the new compounds.
Real-Time Detection of Tdp1 Activity. The Tdp1 activity measurements were carried out as described. […] Tdp1 inhibition was calculated by comparing the rate of increase in fluorescence in the presence of the compound to that of DMSO control wells. IC50 values were determined using a 6-point concentration response curve. The data were imported into the MARS Data Analysis 2.0 program (BMG LABTECH), and the slope during the linear phase (here data from 0 to 7 min) was calculated.

Data set [4] deals with Krebs-2 carcinoma. Briefly: Influence on antitumor effect of tpc, Krebs-2 ascites tumor model. It is filed as in vivo, mice. The note with it: for weight of the ascitic tumor: compared to only tpc. Here is the method: A study of the influence of 3ba on the antitumor effect of tpc (topotecan) was performed using a murine Krebs-2 carcinoma model. An ascitic tumor model combines the advantages of in vitro and in vivo approaches in studying the cytotoxic effect of compounds, since ascitic cells grow in the context of the organism (in vivo), and the intraperitoneal administration of drug ensures its direct contact with tumor cells (in vitro). The experiments were performed using female C57BL/6 mice, which were injected intraperitoneally with 2 × 10^5 ascitic cells on day zero. The mice were divided into six groups of ten animals each.
as §1, §2, §3

The target in data set [5] is T2, Tdp1. More on the design: method as in PMID 27658793. The following applies: Tdp1 inhibition, Figure 1; cited from earlier work.
For data set [6], the system named is human cancer cells. Also noted: method as in PMID 27658793. The note with it: compound in non-toxic doses; cited from earlier work.

Each structure is given as a SMILES string. Read-outs that look alike come from different tables or passages of the source.

T2 sequence (Q9NUW8 whole entry): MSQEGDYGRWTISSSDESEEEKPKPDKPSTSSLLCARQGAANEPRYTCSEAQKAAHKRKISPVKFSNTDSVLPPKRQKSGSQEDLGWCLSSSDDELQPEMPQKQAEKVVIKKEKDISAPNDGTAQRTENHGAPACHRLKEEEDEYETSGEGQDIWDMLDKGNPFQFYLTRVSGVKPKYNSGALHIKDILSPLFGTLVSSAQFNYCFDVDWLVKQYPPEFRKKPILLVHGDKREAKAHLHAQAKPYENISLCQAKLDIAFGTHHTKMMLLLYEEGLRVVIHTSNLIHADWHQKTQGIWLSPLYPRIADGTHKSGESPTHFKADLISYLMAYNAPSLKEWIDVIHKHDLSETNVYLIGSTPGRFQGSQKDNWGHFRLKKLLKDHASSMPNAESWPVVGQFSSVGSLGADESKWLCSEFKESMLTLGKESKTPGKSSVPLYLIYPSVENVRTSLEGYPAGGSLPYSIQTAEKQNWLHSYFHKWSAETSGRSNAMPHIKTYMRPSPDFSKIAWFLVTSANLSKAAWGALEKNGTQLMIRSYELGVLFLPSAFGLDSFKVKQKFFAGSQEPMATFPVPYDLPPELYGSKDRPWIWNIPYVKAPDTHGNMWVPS
T1 sequence (Q9NUW8 149-608): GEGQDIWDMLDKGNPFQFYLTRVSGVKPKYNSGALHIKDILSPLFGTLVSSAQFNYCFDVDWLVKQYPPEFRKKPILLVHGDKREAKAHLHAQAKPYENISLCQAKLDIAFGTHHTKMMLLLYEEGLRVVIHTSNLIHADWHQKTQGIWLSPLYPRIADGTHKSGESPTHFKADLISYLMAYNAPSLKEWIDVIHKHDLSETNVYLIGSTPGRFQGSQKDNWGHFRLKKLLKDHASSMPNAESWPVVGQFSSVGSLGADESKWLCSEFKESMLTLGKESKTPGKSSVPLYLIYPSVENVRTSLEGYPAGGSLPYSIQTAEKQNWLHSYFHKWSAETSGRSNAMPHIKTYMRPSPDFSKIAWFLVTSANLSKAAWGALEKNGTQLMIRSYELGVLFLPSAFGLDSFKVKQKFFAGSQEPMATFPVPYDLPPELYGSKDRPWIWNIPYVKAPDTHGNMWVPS

For orientation: Kd means the concentration at which binding is half-saturated. The IC50 is the concentration needed to halve the response being measured. Take `CC(C)=CCC/C(C)=C/COc1ccc2c(-c3ccc(F)cc3)cc(=O)oc2c1` [3ba, (E)-7-(3,7-Dimethylocta-2,6-dienyloxy)-4-(4-fluorophenyl)-2H-chromen-2-one]: the Kd in data set [1] came to 63 ± 11 µM. Further, in data set [2] (monotherapy at selected doses (tpc 0.5 mg/kg or 3ba 120 mg/kg), unreliable, p > 0.05), the prolongation of life was 13–19%. Further, the increase in lifespan in data set [2] (compared with mice receiving only tpc, p = 0.0065) was found to be 26%; in data set [2] (compared with the control group, p = 0.0002), 42%. In data set [3], this molecule displayed an IC50 of 0.62 µM. Besides, the “weight of the ascitic tumor / tumor growth” value in data set [4] (3ba 20 mg/kg i.p. + tpc 0.5 mg/kg i.p. (group 5)) and in data set [4] (3ba 80 mg/kg i.p. in the absence of tpc (group 6)) was “did not affect tumor growth” in each case. In addition, the “weight of the ascitic tumor” value in data set [4] (3ba 40 mg/kg i.p. + tpc 0.5 mg/kg i.p. (group 4)) is “decrease in ascites weight, although the difference between groups 2 and 4 was not significant”; in data set [4] (3ba 80 mg/kg i.p. + tpc 0.5 mg/kg i.p. (group 3)), “significant decrease”. For the same molecule, the “number of tumor cells in ascites” value in data set [4] (tpc 0.5 mg/kg + 3ba 80 mg/kg i.p. (group 3), only one mouse gave ascitic fluid) worked out at 250 mln.

For the molecule `COc1cccc(COc2ccc3c4c(c(=O)oc3c2)CCCC4)c1` [compound 1], the IC50 in data set [5] is 5 µM.

For `CC1(C)C2CC=C(COc3ccc4c5c(c(=O)oc4c3)CCC5)C1C2` (stereo not drawn) [compound 2], the “effect on the cytotoxic activity of CPT” value in data set [6] is on record as “significantly increased”.
